The text below walks through data of patent publication US20060063784A1, “Method of using substituted pyrazolo [1,5-a] pyrimidines” (priority 2004, published 2006).

Broadly, the IC50 is the point on the concentration scale where inhibition reaches its midpoint.

The first experiment concerns 80S14 (p21-deficient) cells. The experiment can be described thus: Cytotoxicity assay using isogenic cell lines: IC50 in 80S14 (p21-deficient) cells, SRB. The experiment is classed as cell-based, human. To be noted: 80S14 (p21-deficient) cells, 5 days, SRB; class symbols; read-out: IC50 for 80S14. The method in brief: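 IC50 is the concentration halving proliferation relative to untreated controls, read from SRB absorbance (560 nm) after TCA fixation. Test agent dilutions (5 pM–50 μM or 170 pg/ml–10 μg/ml) were left on p21-deficient 80S14 cells (12,000/well, pre-incubated overnight) for 5 days at 37 °C.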
Take `CN(C=O)c1cccc(-c2ccnc3c(C(=O)c4cccs4)cnn23)c1` [Example 261, Formamide, N-methyl-N-[3-[3-(2-thienylcarbonyl)pyrazolo[1,5-a]pyrimidin-7-yl]phenyl}]: the IC50 lay within 1 to 10 µM.

Turning to “3.5-Dinitro-N-{3-[3-(2-thienylcarbonyl)pyrazolo[1,5-a]pyrimidin-7-yl]phenyl}benzamide [Example 288]”, the 50% inhibitory concentration (IC50) lay in the range of 10 to 50 µM.

Still in this experiment, the particulars now being: 80S14 p21-deficient cells, 5 days incubation, SRB; read-out: IC50 for 80SI4.
Regarding `CN(C)CCNC(=O)Nc1cccc(-c2ccnc3c(C(=O)c4cccs4)cnn23)c1` [Example 161, N-[2-(dimethylamino)ethyl]-N′-{3-[3-(thien-2-ylcarbonlyl)pyrazolo[1,5-a]pyrimidin-7-yl]phenyl}urea], the IC50 was in the range of 10 to 50 µM.

On to `O=C(CNC(=O)NC1CCCCC1)Nc1cccc(-c2ccnc3c(C(=O)c4cccs4)cnn23)c1` [Example 138, N-2-[(cyclohexylamino)carbonyl]-N1-{3-[3-(thien-2-ylcarbonyl)pyrazolo[1,5-a]pyrimidin-7-yl]phenyl}glycinamide], for which the 50% inhibitory concentration (IC50) fell in the range of 1 to 10 µM.

The same experiment, now with this note: Homo sapiens, 80S14, 120 h, read-out: IC50 for 80S14 (uM).
On to `CC(C)OC(=O)Nc1cccc(-c2ccnc3c(C(=O)C4CCCC4)cnn23)c1` [Example 295, Isopropyl 3-[3-(cyclopentylcarbonyl)pyrazolo[1,5-a]pyrimidin-7-yl]phenylcarbamate], for which the concentration for half-maximal inhibition (IC50) is 1 to 10 µM.

Take `O=CNc1cccc(-c2ccnc3c(C(=O)c4cccs4)cnn23)c1` [Example 260, N-[3-[3-(2-Thienylcarbonyl)pyrazolo[1,5-a]pyrimidin-7-yl]phenyl}-formamide]: the IC50 was in the range of 1 to 10 µM.

With `Cc1ccc(-c2ccnc3c(C(=O)c4cccs4)cnn23)cc1NC(=O)CC(C)C` [Example 310, 3-Methyl-N-{2-methyl-5-[3-(2-thienylcarbonyl)pyrazolo[1,5-a]pyrimidin-7-yl]phenyl}butanamide], the IC50 was 1 to 10 µM.

Still in this experiment, the particulars now being: Homo sapiens, 80S14, 120 h, read-out: IC50 for 80SI4 (uM).
In the case of `CC(C)(C)C(=O)Nc1cccc(-c2ccnc3c(C(=O)c4cccs4)cnn23)c1` [Example 48, 2,2-dimethyl-N-{3-[3-(thien-2-ylcarbonyl)pyrazolo[1,5-a]pyrimidin-7-yl]phenyl}propanamide], the IC50 was below 1 µM.

The experiment is the same for the next values; noted with them: Homo sapiens, 120 h; 80S14 (p21-deficient) cells, 5 days, SRB; class symbols; read-out: IC50 for 80S14.
Consider `COc1ccc(-c2ccnc3c(C(=O)c4cccs4)cnn23)cc1NC(=O)c1ccccc1` [Example 315, N-{2-Methoxy-5-[3-(2-thienylcarbonyl)pyrazolo[1,5-a]pyrimidin-7-yl]phenyl}benzamide], for which the half-inhibitory concentration (IC50) lay within 1 to 10 µM.

As to `CN(C(=O)C1CCC1)c1cccc(-c2ccnc3c(C(=O)c4ccccc4)cnn23)c1` [Example 232, N-[3-(3-Benzoylpyrazolo-[1,5-a]pyrimidin-7-yl)phenyl]-N-methylcyclobutanecarboxamide], the IC50 lay within 10 to 50 µM.

As for `O=C(NC1CCCC1)c1cccc(-c2ccnc3c(C(=O)c4cccs4)cnn23)c1` [Example 320, N-Cyclopentyl-3-[3-(2-thienylcarbonyl)pyrazolo[1,5-a]pyrimidin-7-yl]benzamide], the 50% inhibitory concentration (IC50) is below 1 µM.

For `O=C(Nc1cccc(-c2ccnc3c(C(=O)c4ccco4)cnn23)c1)c1ccccc1` [Example 300, N-{3-[3-(2-Furoyl)pyrazolo[1,5-a]pyrimidin-7-yl]phenyl}benzamide], the half-maximal inhibitory concentration (IC50) was 1 to 10 µM.

As to `CN(C(=O)C1CC1)c1cccc(-c2ccnc3c(C(=O)c4ccccc4)cnn23)c1` [Example 236, N-[3-(3-benzoylpyrazolo[1,5-a]-pyrimidin-7-yl)phenyl]-N-methyl-cyclopropanecarboxamide], the 50% inhibitory concentration (IC50) lay within 10 to 50 µM.

For `O=C(c1ccccc1)c1cnn2c(-c3cccc(N4CCCC4=O)c3)ccnc12` [Example 229, 1-[3-(3-Benzoylpyrazolo[1,5-a]-pyrimidin-7-yl)phenyl]-2-pyrrolidinone], the IC50 is 10 to 50 µM.

Take `CCC(CC)CNc1cccc(-c2ccnc3c(C(=O)c4cccs4)cnn23)c1` [Example 403, (7-{3-[(2-Ethylbutyl)amino]phenyl}pyrazolo[1,5-a]pyrimidin-3-yl)(thien-2-yl)methanone]: the IC50 lay within 1 to 10 µM.

Regarding `O=C(c1ccco1)c1cnn2c(-c3cccc(NC(=O)C4CCCC4)c3)ccnc12` [Example 302, N-{3-[3-(2-Furoyl)pyrazolo[1,5-a]pyrimidin-7-yl]phenyl}cyclopentanecarboxamide], the IC50 was below 1 µM.

Still in this experiment, the particulars now being: Homo sapiens, 120 h; 80S14 p21-deficient cells, 5 days incubation, SRB; read-out: IC50 for 80SI4.
On to `COc1ccc(CC(=O)Nc2cccc(-c3ccnc4c(C(=O)c5cccs5)cnn34)c2)cc1` [Example 106, 2-(4-methoxyphenyl)-N-{3-[3-(thien-2-ylcarbonyl)pyrazolo[1,5-a]pyrimidin-7-yl]phenyl}acetamide], for which the IC50 was below 1 µM.

Consider `CC1CCC(OC(=O)Nc2cccc(-c3ccnc4c(C(=O)c5cccs5)cnn34)c2)C1` (centres unmarked) [Example 188, 3-methylcyclopentyl 3-[3-(thien-2-ylcarbonyl)pyrazolo[1,5-a]pyrimidin-7-yl]phenylcarbamate], for which the IC50 is below 1 µM.

As for `O=C(CNC(=O)C1CCC1)Nc1cccc(-c2ccnc3c(C(=O)c4cccs4)cnn23)c1` [Example 127, N-[2-oxo-2-({3-[3-(thien-2-ylcarbonyl)pyrazolo[1,5-a]pyrimidin-7-yl]phenyl}amino)ethyl]cyclobutanecarboxamide], the IC50 was in the range of 10 to 50 µM.

For the compound `O=C(/C=C/c1ccccc1)Nc1cccc(-c2ccnc3c(C(=O)c4cccs4)cnn23)c1` [Example 71, (2E)-3-phenyl-N-{3-[3-(thien-2-ylcarbonyl)pyrazolo[1,5-a]pyrimidin-7-yl]phenyl}prop-2-enamide], the half-inhibitory concentration (IC50) lay in the range of 1 to 10 µM.

On to `CCC(OC(=O)Nc1cccc(-c2ccnc3c(C(=O)c4cccs4)cnn23)c1)C(C)C` (centres unmarked) [Example 184, 1-ethyl-2-methylpropyl 3-[3-(thien-2-ylcarbonyl)pyrazolo[1,5-a]pyrimidin-7-yl]phenylcarbamate], for which the IC50 was 1 to 10 µM.

As to `CCOC(=O)CNC(=O)Nc1cccc(-c2ccnc3c(C(=O)c4cccs4)cnn23)c1` [Example 10, ethyl N-[({3-[3-(thien-2-ylcarbonyl)pyrazolo[1,5-a]pyrimidin-7-yl]phenyl}amino)carbonyl]glycinate], the concentration for half-maximal inhibition (IC50) was 10 to 50 µM.

For `O=C(NC(=O)C(Cl)(Cl)Cl)Nc1cccc(-c2ccnc3c(C(=O)c4cccs4)cnn23)c1` [Example 9, N-{3-[3-(thien-2-ylcarbonyl)pyrazolo[1,5-a]pyrimidin-7-yl]phenyl}-N′-(trichloroacetyl)urea], the half-inhibitory concentration (IC50) was in the range of 1 to 10 µM.

Turning to `CC1CC1COC(=O)Nc1cccc(-c2ccnc3c(C(=O)c4cccs4)cnn23)c1` (centres unmarked) [Example 187, (2-methylcyclopropyl)methyl 3-[3-(thien-2-ylcarbonyl)pyrazolo[1,5-a]pyrimidin-7-yl]phenylcarbamate], the IC50 is below 1 µM.

As to `CCCCOC(=O)NCC(=O)Nc1cccc(-c2ccnc3c(C(=O)c4cccs4)cnn23)c1` [Example 116, butyl 2-oxo-2-({3-[3-(thien-2-ylcarbonyl)pyrazolo[1,5-a]pyrimidin-7-yl]phenyl}amino)ethylcarbamate], the IC50 is below 1 µM.

On to `O=C(CNC(=O)C1CCCCC1)Nc1cccc(-c2ccnc3c(C(=O)c4cccs4)cnn23)c1` [Example 129, N-[2-oxo-2-({3-[3-(thien-2-ylcarbonyl)pyrazolo[1,5-a]pyrimidin-7-yl]phenyl}amino)ethyl]cyclohexanecarboxamide], for which the IC50 lay in the range of 10 to 50 µM.

`O=C(Nc1cccc(-c2ccnc3c(C(=O)c4cccs4)cnn23)c1)N[C@H]1C[C@@H]1c1ccccc1` [Example 12, N-[(1S,2R)-2-phenylcyclopropyl]-N′-{3-[3-(thien-2-ylcarbonyl)pyrazolo[1,5-a]pyrimidin-7-yl]phenyl}urea]: the half-inhibitory concentration (IC50) was below 1 µM.

Consider `CC(OC(=O)Nc1cccc(-c2ccnc3c(C(=O)c4cccs4)cnn23)c1)C1CC1` (centres unmarked) [Example 190, 1-cyclopropylethyl 3-[3-(thien-2-ylcarbonyl)pyrazolo[1,5-a]pyrimidin-7-yl]phenylcarbamate], for which the concentration for half-maximal inhibition (IC50) was below 1 µM.

As to `O=C(Nc1ccccc1)Nc1cccc(-c2ccnc3c(C(=O)c4cccs4)cnn23)c1` [Example 1, N-phenyl-N′-{3-[3-(thien-2-ylcarbonyl)pyrazolo[1,5-a]pyrimidin-7-yl]phenyl}urea], the 50% inhibitory concentration (IC50) was below 1 µM.

Consider `Cc1cnc2c(C(=O)c3cccs3)cnn2c1-c1cccc(NC(=O)c2cccnc2)c1` [Example 220, N-{3-[6-methyl-3-(thien-2-ylcarbonyl)pyrazolo[1,5-a]pyrimidin-7-yl]phenyl}nicotinamide], for which the half-inhibitory concentration (IC50) was in the range of 10 to 50 µM.

Turning to `O=C(Nc1cccc(-c2ccnc3c(C(=O)c4cccs4)cnn23)c1)c1ccc(F)cc1` [Example 112, 4-fluoro-N-{3-[3-(thien-2-ylcarbonyl)pyrazolo[1,5-a]pyrimidin-7-yl]phenyl}benzamide], the half-maximal inhibitory concentration (IC50) was below 1 µM.

On to `O=C(Cc1ccc(F)cc1)Nc1cccc(-c2ccnc3c(C(=O)c4cccs4)cnn23)c1` [Example 109, 2-(4-fluorophenyl)-N-{3-[3-(thien-2-ylcarbonyl)pyrazolo[1,5-a]pyrimidin-7-yl]phenyl}acetamide], for which the IC50 is below 1 µM.

On to `Cc1cnc2c(C(=O)c3cccs3)cnn2c1-c1cccc(NC(=O)CC(C)C)c1` [Example 215, 3-methyl-N-{3-[6-methyl-3-(thien-2-ylcarbonyl)pyrazolo[1,5-a]pyrimidin-7-yl]phenyl}butanamide], for which the IC50 was in the range of 10 to 50 µM.

As to `Cc1cnc2c(C(=O)c3cccs3)cnn2c1-c1cccc(NC(=O)Cc2cccs2)c1` [Example 219, N-{3-[6-methyl-3-(thien-2-ylcarbonyl)pyrazolo[1,5-a]pyrimidin-7-yl]phenyl}-2-thien-2-ylacetamide], the IC50 lay within 10 to 50 µM.

For `Cc1ccccc1S(=O)(=O)Nc1cccc(-c2ccnc3c(C(=O)c4cccs4)cnn23)c1` [Example 33, 2-methyl-N-{3-[3-(thien-2-ylcarbonyl)pyrazolo[1,5-a]pyrimidin-7-yl]phenyl}benzenesulfonamide], the half-inhibitory concentration (IC50) was below 1 µM.
